Measured values reported in patent US20240270762A1, “PENICILLIN-BINDING PROTEIN INHIBITORS” (priority 2021, published 2024).
pEC50, pIC50: −log10 of the molar value. Converted amounts (≈) assume the structure as drawn.

Key:
N. gonorrhoeae WHO M = test: Liquid broth MIC in Fastidious broth; conditions: Neisseria gonorrhoeae, read-out: Minimum Inhibitory Concentration, WHO M
N. gonorrhoeae CDC-0197 = test: Liquid broth MIC in Fastidious broth; conditions: Neisseria gonorrhoeae, CDC0197, read-out: Minimum Inhibitory Concentration, CDC-0197
P. aeruginosa ATCC 35151 = test: microbe, parasite or virus in culture; assay type: cell-based; conditions: Pseudomonas aeruginosa, ATCC35151, read-out: Minimum inhibitory concentration, P. aeruginosa ATCC 35151
A. baumannii ATCC 19606 = test: microbe, parasite or virus in culture; assay type: cell-based; conditions: Acinetobacter baumannii, ATCC19606, read-out: MIC, A. baumannii ATCC 19606
N. gonorrhoeae WHO K = test: Liquid broth MIC in Fastidious broth; conditions: Neisseria gonorrhoeae, read-out: Minimum Inhibitory Concentration, WHO K
P. aeruginosa CDC-0090 = test: microbe, parasite or virus in culture; assay type: cell-based; conditions: Pseudomonas aeruginosa, CDC0090, read-out: Minimum inhibitory concentration, P. aeruginosa CDC-0090
N. gonorrhoeae WHO X = test: Liquid broth MIC in Fastidious broth; conditions: Neisseria gonorrhoeae, read-out: Minimum Inhibitory Concentration, WHO X
[1] = tested on: B. humptydooensis ATCC BAA-2767; test: microbe, parasite or virus in culture; assay type: cell-based; conditions: Burkholderia humptydooensis, ATCCBAA2767, read-out: Minimum inhibitory concentration (MIC), B. humptydooensis ATCC BAA-2767
A. baumannii CDC-0083 = test: microbe, parasite or virus in culture; assay type: cell-based; conditions: Acinetobacter baumannii, CDC0083, read-out: MIC, A. baumannii CDC-0083
N. gonorrhoeae WHO Z = test: Liquid broth MIC in Fastidious broth; conditions: Neisseria gonorrhoeae, read-out: Minimum Inhibitory Concentration, WHO Z
[2] = tested on: P. aeruginosa (ΔmexAB-oprM); test: Broth microdilution MIC in iron-depleted CAMHB (IDM); assay type: cell-based; conditions: Pseudomonas aeruginosa; iron-depleted CAMHB (IDM); […]; read-out: Minimum inhibitory concentration, P. aeruginosa ΔmexAB-oprM
[3] = target: T1, PBP3 from Pseudomonas aeruginosa (PAO1) (Pseudomonas aeruginosa, UniProt G3XD46); test: Bocillin-FL fluorescence polarization competition binding, P. aeruginosa PBP3; conditions: Binding affinity to P. aeruginosa PBP3; fluorescence polarization competition binding assay using Bocillin-FL; read-out: P. aeruginosa PBP3 Potency
T1 construct: made in house
Method in brief: (§1)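 Purified PBPs pre-incubated with inhibitor (E. coli PBP3 1.5 μM, 30 min; P. aeruginosa PBP3 0.75 μM, A. baumannii PBP1a 1 μM and PBP3 0.2 μM, 15 min), then Bocillin-FL 0.1 μM (0.05 μM for PBP1a) added; FP read up to 60 min. EC50 = concentration halving bound Bocillin-FL.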

N. gonorrhoeae FA1090 = test: Liquid broth MIC in Fastidious broth; conditions: Neisseria gonorrhoeae, FA1090, read-out: Minimum Inhibitory Concentration, FA 1090
[4] = target: T2, PBP3 from Escherichia coli (K-12) (Escherichia coli, UniProt P0AD68); test: Bocillin-FL fluorescence polarization competition binding, E. coli PBP3
T2 construct: made in house
Method in brief: as §1

N. gonorrhoeae WHO L = test: Liquid broth MIC in Fastidious broth; conditions: Neisseria gonorrhoeae, read-out: Minimum Inhibitory Concentration, WHO L

T2 sequence (P0AD68 1-577): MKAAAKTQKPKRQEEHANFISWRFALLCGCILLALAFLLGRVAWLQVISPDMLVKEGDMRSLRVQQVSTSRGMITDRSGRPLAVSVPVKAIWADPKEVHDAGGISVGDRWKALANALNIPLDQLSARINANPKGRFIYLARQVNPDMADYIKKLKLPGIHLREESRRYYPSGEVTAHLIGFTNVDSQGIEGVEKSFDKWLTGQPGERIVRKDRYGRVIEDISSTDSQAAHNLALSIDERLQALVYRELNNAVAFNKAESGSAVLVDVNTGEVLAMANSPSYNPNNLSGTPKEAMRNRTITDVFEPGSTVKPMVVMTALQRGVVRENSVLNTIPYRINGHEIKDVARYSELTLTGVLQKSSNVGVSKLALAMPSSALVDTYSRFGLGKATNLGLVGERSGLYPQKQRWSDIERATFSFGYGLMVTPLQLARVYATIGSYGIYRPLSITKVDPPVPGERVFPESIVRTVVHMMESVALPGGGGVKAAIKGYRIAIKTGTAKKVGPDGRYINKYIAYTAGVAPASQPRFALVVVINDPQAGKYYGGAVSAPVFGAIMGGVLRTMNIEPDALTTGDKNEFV
T1 sequence (G3XD46 whole entry): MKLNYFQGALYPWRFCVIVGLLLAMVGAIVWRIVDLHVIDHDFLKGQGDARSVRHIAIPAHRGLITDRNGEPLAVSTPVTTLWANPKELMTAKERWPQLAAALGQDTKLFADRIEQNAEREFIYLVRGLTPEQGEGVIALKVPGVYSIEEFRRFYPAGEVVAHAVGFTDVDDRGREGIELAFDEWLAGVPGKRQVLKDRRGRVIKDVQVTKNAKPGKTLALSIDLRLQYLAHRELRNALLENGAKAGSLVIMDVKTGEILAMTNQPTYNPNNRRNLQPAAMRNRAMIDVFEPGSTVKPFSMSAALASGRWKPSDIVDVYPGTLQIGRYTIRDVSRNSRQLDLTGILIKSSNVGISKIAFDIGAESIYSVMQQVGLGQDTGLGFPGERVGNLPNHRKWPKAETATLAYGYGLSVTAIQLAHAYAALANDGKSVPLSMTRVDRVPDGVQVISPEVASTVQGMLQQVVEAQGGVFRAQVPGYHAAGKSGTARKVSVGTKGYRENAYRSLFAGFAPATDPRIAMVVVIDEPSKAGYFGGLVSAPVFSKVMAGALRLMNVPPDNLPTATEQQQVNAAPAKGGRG

O=C(NCCS(=O)(=O)N1CCN(C(=O)NC(C(=O)N[C@H]2Cc3ccc(F)c(C(=O)O)c3OB2O)c2cc(F)c(O)c(O)c2Cl)C1=O)c1cccc(O)c1 (stereo partly drawn) [Example 261, (3R)-3-(2-(2-chloro-5-fluoro-3,4-dihydroxyphenyl)-2-(3-((2-(3-hydroxybenzamido)ethyl)sulfonyl)-2-oxoimidazolidine-1-carboxamido)acetamido)-7-fluoro-2-hydroxy-3,4-dihydro-2H-benzo[e][1,2]oxaborinine-8-carboxylic acid]
MIC (N. gonorrhoeae WHO M): 4 to 8 µg/mL (≈ 5.12 to 10.2 µM) | MIC (N. gonorrhoeae CDC-0197): 16 to 32 µg/mL (≈ 20.5 to 40.9 µM) | MIC (P. aeruginosa ATCC 35151): < 1 µg/mL | MIC (A. baumannii ATCC 19606): < 1 µg/mL | MIC (N. gonorrhoeae WHO K): > 64 µg/mL | MIC (P. aeruginosa CDC-0090): 2 to 4 µg/mL (≈ 2.56 to 5.12 µM) | MIC (N. gonorrhoeae WHO X): > 64 µg/mL | MIC [1]: 2 to 4 µg/mL (≈ 2.56 to 5.12 µM) | MIC (A. baumannii CDC-0083): < 1 µg/mL | MIC (N. gonorrhoeae WHO Z): 4 to 8 µg/mL (≈ 5.12 to 10.2 µM) | MIC [2]: < 1 µg/mL | pIC50 [3]: > 5.00 | MIC (N. gonorrhoeae FA1090): 4 to 8 µg/mL (≈ 5.12 to 10.2 µM) | pEC50 [4]: > 5.00 | MIC (N. gonorrhoeae WHO L): > 64 µg/mL

O=C(NCCS(=O)(=O)N1CCN(C(=O)NC(C(=O)N[C@H]2Cc3ccc(F)c(C(=O)O)c3OB2O)c2cc(F)c(O)c(O)c2Cl)C1=O)c1cccnc1 (stereo partly drawn) [Example 262, (3R)-3-(2-(2-chloro-5-fluoro-3,4-dihydroxyphenyl)-2-(3-((2-(nicotinamido)ethyl)sulfonyl)-2-oxoimidazolidine-1-carboxamido)acetamido)-7-fluoro-2-hydroxy-3,4-dihydro-2H-benzo[e][1,2]oxaborinine-8-carboxylic acid]
MIC (N. gonorrhoeae WHO M): 16 to 32 µg/mL (≈ 20.9 to 41.7 µM) | MIC (N. gonorrhoeae CDC-0197): 16 to 32 µg/mL (≈ 20.9 to 41.7 µM) | MIC (P. aeruginosa ATCC 35151): < 1 µg/mL | MIC (A. baumannii ATCC 19606): < 1 µg/mL | MIC (N. gonorrhoeae WHO K): > 64 µg/mL | MIC (P. aeruginosa CDC-0090): < 1 µg/mL | MIC (N. gonorrhoeae WHO X): > 64 µg/mL | MIC [1]: < 1 µg/mL | MIC (A. baumannii CDC-0083): < 1 µg/mL | MIC (N. gonorrhoeae WHO Z): 16 to 32 µg/mL (≈ 20.9 to 41.7 µM) | MIC [2]: < 1 µg/mL | pIC50 [3]: > 5.00 | MIC (N. gonorrhoeae FA1090): 4 to 8 µg/mL (≈ 5.22 to 10.4 µM) | pEC50 [4]: > 5.00 | MIC (N. gonorrhoeae WHO L): > 64 µg/mL

O=C(NCCS(=O)(=O)N1CCN(C(=O)N[C@H](C(=O)N[C@H]2Cc3ccc(F)c(C(=O)O)c3OB2O)c2cc(F)c(O)c(O)c2Cl)C1=O)c1nccs1 [Example 263, (R)-3-((S)-2-(2-chloro-5-fluoro-3,4-dihydroxyphenyl)-2-(2-oxo-3-((2-(thiazole-2-carboxamido)ethyl)sulfonyl)imidazolidine-1-carboxamido)acetamido)-7-fluoro-2-hydroxy-3,4-dihydro-2H-benzo[e][1,2]oxaborinine-8-carboxylic acid]
MIC (N. gonorrhoeae WHO M): > 64 µg/mL | MIC (N. gonorrhoeae CDC-0197): > 64 µg/mL | MIC (P. aeruginosa ATCC 35151): 2 to 4 µg/mL (≈ 2.59 to 5.18 µM) | MIC (A. baumannii ATCC 19606): 8 to 16 µg/mL (≈ 10.4 to 20.7 µM) | MIC (N. gonorrhoeae WHO K): > 64 µg/mL | MIC (P. aeruginosa CDC-0090): 32 to 64 µg/mL (≈ 41.4 to 82.8 µM) | MIC (N. gonorrhoeae WHO X): > 64 µg/mL | MIC [1]: 8 to 16 µg/mL (≈ 10.4 to 20.7 µM) | MIC (A. baumannii CDC-0083): 2 to 4 µg/mL (≈ 2.59 to 5.18 µM) | MIC (N. gonorrhoeae WHO Z): > 64 µg/mL | MIC [2]: 8 to 16 µg/mL (≈ 10.4 to 20.7 µM) | pIC50 [3]: 4.30 to 5.00 | MIC (N. gonorrhoeae FA1090): > 64 µg/mL | pEC50 [4]: < 3.60 | MIC (N. gonorrhoeae WHO L): > 64 µg/mL

O=C(NCCS(=O)(=O)N1CCN(C(=O)N[C@@H](C(=O)N[C@H]2Cc3ccc(F)c(C(=O)O)c3OB2O)c2cc(F)c(O)c(O)c2Cl)C1=O)c1nccs1 [Example 264, (R)-3-((R)-2-(2-chloro-5-fluoro-3,4-dihydroxyphenyl)-2-(2-oxo-3-((2-(thiazole-2-carboxamido)ethyl)sulfonyl)imidazolidine-1-carboxamido)acetamido)-7-fluoro-2-hydroxy-3,4-dihydro-2H-benzo[e][1,2]oxaborinine-8-carboxylic acid]
MIC (N. gonorrhoeae WHO M): 4 to 8 µg/mL (≈ 5.18 to 10.4 µM) | MIC (N. gonorrhoeae CDC-0197): 16 to 32 µg/mL (≈ 20.7 to 41.4 µM) | MIC (P. aeruginosa ATCC 35151): < 1 µg/mL | MIC (A. baumannii ATCC 19606): < 1 µg/mL | MIC (N. gonorrhoeae WHO K): 16 to 32 µg/mL (≈ 20.7 to 41.4 µM) | MIC (P. aeruginosa CDC-0090): < 1 µg/mL | MIC (N. gonorrhoeae WHO X): > 64 µg/mL | MIC [1]: 2 to 4 µg/mL (≈ 2.59 to 5.18 µM) | MIC (A. baumannii CDC-0083): < 1 µg/mL | MIC (N. gonorrhoeae WHO Z): 4 to 8 µg/mL (≈ 5.18 to 10.4 µM) | MIC [2]: < 1 µg/mL | pIC50 [3]: > 5.00 | MIC (N. gonorrhoeae FA1090): 1 to 2 µg/mL (≈ 1.29 to 2.59 µM) | pEC50 [4]: > 5.00 | MIC (N. gonorrhoeae WHO L): > 64 µg/mL

O=C(O)c1c(F)ccc2c1OB(O)[C@@H](NC(=O)C(NC(=O)N1CCN(S(=O)(=O)CCNC(=O)[C@@H]3CCCN3)C1=O)c1cc(F)c(O)c(O)c1Cl)C2 (stereo partly drawn) [Example 265, (3R)-3-(2-(2-chloro-5-fluoro-3,4-dihydroxyphenyl)-2-(2-oxo-3-((2-((S)-pyrrolidine-2-carboxamido)ethyl)sulfonyl)imidazolidine-1-carboxamido)acetamido)-7-fluoro-2-hydroxy-3,4-dihydro-2H-benzo[e][1,2]oxaborinine-8-carboxylic acid]
MIC (N. gonorrhoeae WHO M): 4 to 8 µg/mL (≈ 5.27 to 10.5 µM) | MIC (N. gonorrhoeae CDC-0197): 16 to 32 µg/mL (≈ 21.1 to 42.2 µM) | MIC (P. aeruginosa ATCC 35151): < 1 µg/mL | MIC (A. baumannii ATCC 19606): < 1 µg/mL | MIC (N. gonorrhoeae WHO K): > 64 µg/mL | MIC (P. aeruginosa CDC-0090): 2 to 4 µg/mL (≈ 2.64 to 5.27 µM) | MIC (N. gonorrhoeae WHO X): > 64 µg/mL | MIC [1]: < 1 µg/mL | MIC (A. baumannii CDC-0083): < 1 µg/mL | MIC (N. gonorrhoeae WHO Z): 4 to 8 µg/mL (≈ 5.27 to 10.5 µM) | MIC [2]: < 1 µg/mL | pIC50 [3]: > 5.00 | MIC (N. gonorrhoeae FA1090): 4 to 8 µg/mL (≈ 5.27 to 10.5 µM) | pEC50 [4]: 4.30 to 5.00 | MIC (N. gonorrhoeae WHO L): > 64 µg/mL

O=C(NCCS(=O)(=O)N1CCN(C(=O)NC(C(=O)N[C@H]2Cc3ccc(F)c(C(=O)O)c3OB2O)c2cc(F)c(O)c(O)c2Cl)C1=O)Nc1cccc(O)c1 (stereo partly drawn) [Example 266, (3R)-3-(2-(2-chloro-5-fluoro-3,4-dihydroxyphenyl)-2-(3-((2-(3-(3-hydroxyphenyl)ureido)ethyl)sulfonyl)-2-oxoimidazolidine-1-carboxamido)acetamido)-7-fluoro-2-hydroxy-3,4-dihydro-2H-benzo[e][1,2]oxaborinine-8-carboxylic acid]
MIC (N. gonorrhoeae WHO M): 4 to 8 µg/mL (≈ 5.02 to 10 µM) | MIC (N. gonorrhoeae CDC-0197): 16 to 32 µg/mL (≈ 20.1 to 40.2 µM) | MIC (P. aeruginosa ATCC 35151): < 1 µg/mL | MIC (A. baumannii ATCC 19606): < 1 µg/mL | MIC (N. gonorrhoeae WHO K): 16 to 32 µg/mL (≈ 20.1 to 40.2 µM) | MIC (P. aeruginosa CDC-0090): 2 to 4 µg/mL (≈ 2.51 to 5.02 µM) | MIC (N. gonorrhoeae WHO X): > 64 µg/mL | MIC [1]: 8 to 16 µg/mL (≈ 10 to 20.1 µM) | MIC (A. baumannii CDC-0083): < 1 µg/mL | MIC (N. gonorrhoeae WHO Z): 4 to 8 µg/mL (≈ 5.02 to 10 µM) | MIC [2]: < 1 µg/mL | pIC50 [3]: > 5.00 | MIC (N. gonorrhoeae FA1090): 1 to 2 µg/mL (≈ 1.25 to 2.51 µM) | pEC50 [4]: > 5.00 | MIC (N. gonorrhoeae WHO L): > 64 µg/mL

O=C(NCCS(=O)(=O)N1CCN(C(=O)N[C@@H](C(=O)N[C@H]2Cc3ccc(F)c(C(=O)O)c3OB2O)c2cc(F)c(O)c(O)c2Cl)C1=O)Nc1cccnc1 [Example 267, (R)-3-((R)-2-(2-chloro-5-fluoro-3,4-dihydroxyphenyl)-2-(2-oxo-3-((2-(3-(pyridin-3-yl)ureido)ethyl)sulfonyl)imidazolidine-1-carboxamido)acetamido)-7-fluoro-2-hydroxy-3,4-dihydro-2H-benzo[e][1,2]oxaborinine-8-carboxylic acid]
MIC (N. gonorrhoeae WHO M): 4 to 8 µg/mL (≈ 5.12 to 10.2 µM) | MIC (N. gonorrhoeae CDC-0197): 16 to 32 µg/mL (≈ 20.5 to 40.9 µM) | MIC (P. aeruginosa ATCC 35151): < 1 µg/mL | MIC (A. baumannii ATCC 19606): < 1 µg/mL | MIC (N. gonorrhoeae WHO K): > 64 µg/mL | MIC (P. aeruginosa CDC-0090): 2 to 4 µg/mL (≈ 2.56 to 5.12 µM) | MIC (N. gonorrhoeae WHO X): > 64 µg/mL | MIC [1]: 2 to 4 µg/mL (≈ 2.56 to 5.12 µM) | MIC (A. baumannii CDC-0083): < 1 µg/mL | MIC (N. gonorrhoeae WHO Z): 4 to 8 µg/mL (≈ 5.12 to 10.2 µM) | MIC [2]: < 1 µg/mL | pIC50 [3]: > 5.00 | MIC (N. gonorrhoeae FA1090): 1 to 2 µg/mL (≈ 1.28 to 2.56 µM) | pEC50 [4]: > 5.00 | MIC (N. gonorrhoeae WHO L): > 64 µg/mL
